{"source": "patent US6610791B2", "about": "“Photosensitive compound and photosensitive resin” (Toyo Gosai Kogyo Co., Ltd., priority 2000, dated 2003)", "assay": "Measurement of solubility in water at 25° C.", "assay_type": "physicochemical", "description": "Measurement of [5-(sodium 4-azidobenzylidene-2-sulfonate)-3-(N-(4,4′-dimethoxybutyl)carbamoyl)methyl]-rhodanine in Terms of Solubility in Water and Molar Absorption Coefficient\nMeasurement of solubility in water at 25° C. was carried out for the compound obtained in Example 3 or 6, and for the compound, which was obtained through the method of Example 2 described in Japanese Patent Application Laid-Open (kokai) No. 10-310769, represented by the following formula. [drawing 17]\nFurther, UV spectra were measured for the two compounds in water serving as a solvent so as to measure the molar absorption coefficient ε at a wavelength of maximum absorption."}
{"substance": "[5-(sodium 4-azidobenzylidene-2-sulfonate)-3-(N-(4,4′-dimethoxybutyl)carbamoyl)methyl]rhodanine", "values": [{"measurement": "solubility in water", "setting": "in 100 g of water", "value": 5.4, "unit": "g"}, {"measurement": "solubility of the former compound relative to the latter (reference) compound", "setting": "water, ratio of the invention compound to the reference compound", "value": "approximately five"}]}
